# Measurements from patent publication US11865103B2, “Methods of treating disorders associated with glycosylation defective proteins” (CASE WESTERN RESERVE UNIVERSITY, priority 2016, dated 2024).
# How the values were obtained:
# hCLRN1-YFP = test: Localization of wild-type hCLRN1-YFP in neuromast hair cells of hCLRN1-YFP; clrn1^+/+ larvae treated with SERCA inhibitors; type: in vivo, zebrafish; settings: for Effect on pattern of localization of wild-type hCLRN1-YFP to the hair cell's bundle or plasma membrane: clrn1^+/+ larvae treated with TG or ART; for YFP intensity in the ROI in hair bundles (Mean±SEM): clrn1^+/+ larvae, 1 uM TG or 0.4 uM ART + 0.01% DMSO in E3 medium, E3 medium 62.82±2.15
# Description: (§1) Thapsigargin (TG, 1 mg, Sigma-Aldrich, #T9033) stock in 100% DMSO was diluted in E3 medium to make the required final concentration of the drug. Five different concentrations that were earlier reported to induce ER stress and are non-toxic or lower lethal dose (LD50) in the zebrafish (0.1, 0.5, 1.0, 2.5, 5 μM concentrations) were used in this study. A total of 25 larvae per dosage and treatment duration from the genotypes hCLRN1^N48K-YFP; clrn1^+/+ and hCLRN1-YFP; clrn1^+/+, no older than 72 hours post fertilization (hpf) at the start of the experiment, were placed in a well of 12-well uncoated culture plate (BD Falcon, Canaan, CT). For ER stress induction, larvae were incubated in different dosage of TG from 1 hr to overnight at 28.5° C., followed by three times wash with E3 medium at 28.5° C. (Table 2) and hair cells from the hCLRN1^N48K-YFP; clrn1^+/+ and hCLRN1-YFP; clrn1^+/+ lines were examined for the respective protein distribution pattern in the hair cell bundle and the cell body. Live confocal images of ‘O’ and ‘ML1’ neuromasts per larvae were capture using Leica SP2 confocal microscope with 40× oil immersion objective. Unadjusted 1 micron middle section images of four hair bundles per ML1 neuromast of larvae from TG treated and untreated groups were analyzed using Image J software version v. 1.48 (FIG. 4). The hair bundle trafficked amount of hCLRN1^N48K protein corresponds to the change in YFP intensity in the hair bundle in the TG treated larvae. Quantification of YFP fluorescence intensity was carried out as described in the previous experiment for unconventional trafficking of hCLRN1^N48K-YFP by hGRASP55 cargos. […] Student's t-test was used to confirm the observed changes in the YFP intensity in the hair bundles of TG treatment compared to untreated hCLRN1^N48K-YFP; clrn1^+/+ larvae, is significant (FIG. 4J).
# Arthemisinin (ART, 100 mg, Sigma-Aldrich, #361593) in 100% DMSO was diluted in E3 medium to make the final concentration. Five different concentrations within the range of reported ER stress inducing level in the zebrafish (0.1, 0.25, 0.4, 0.5, and 1 μM concentrations) were used in this study. A total of 25 larvae, no older than 72 hpf at the start of the experiment, were placed in a well of 12-well uncoated culture plate (BD 35 Falcon, Canaan, CT). […] From the captured confocal images of these neuromast hair cells, unadjusted 1 micron middle section images of 4 mature hair bundles from ML1 neuromast per larvae were considered for the YFP intensity quantification in unadjusted ROI covering the middle section of each hair bundles using the imageJ software. […] Quantification of YFP fluorescence intensity was carried out as described in the previous experiment for unconventional trafficking of hCLRN1^N48K-YFP by hGRASP55 cargos. […]
# [1] = system: hCLRN1^N48K-YFP; clrn1^+/+ larvae; test: Larval survival/lethality by TG or ART dose and treatment duration; type: in vivo, zebrafish; design: key: ‘S’ = Surviving; ‘L’ = Lethal
# Description: as §1
# Arthemisinin (ART, 100 mg, Sigma-Aldrich, #361593) in 100% DMSO was diluted in E3 medium to make the final concentration. Five different concentrations within the range of reported ER stress inducing level in the zebrafish (0.1, 0.25, 0.4, 0.5, and 1 μM concentrations) were used in this study. A total of 25 larvae, no older than 72 hpf at the start of the experiment, were placed in a well of 12-well uncoated culture plate (BD 35 Falcon, Canaan, CT). For ER stress induction, larvae were exposed in different dosage of ART for different duration at 28.5° C. (Table 3) and washed three times with E3 medium, and hair cells from the hCLRN1-YFP; clrn1^+/+ larvae and hCLRN1^N48K-YFP; clrn1^+/+ larvae were examined for the respective protein distribution pattern in the hair cell bundle and the cell body. Live confocal Z-stack images of otic ‘O’ and middle ‘ML’ neuromasts per larvae of hCLRN1-YFP; clrn1^+/+ larvae and hCLRN1^N48K-YFP; clrn1^+/+ genotypes from the untreated group in the E3 medium, 0.01% DMSO treatment group and ART treatment group were capture using Leica SP2 confocal microscope at 40× oil immersion objective. Hair cells from 2 otic (0) and 2 middle (ML) neuromasts per larvae were examined for the change in YFP intensity in the hair bundle and cell body. From the captured confocal images of these neuromast hair cells, unadjusted 1 micron middle section images of 4 mature hair bundles from ML1 neuromast per larvae were considered for the YFP intensity quantification in unadjusted ROI covering the middle section of each hair bundles using the imageJ software. […] The hair bundle trafficked amount of hCLRN1^N48K protein corresponds to the change in YFP intensity in the hair bundle in the ART treated larvae. Quantification of YFP fluorescence intensity was carried out as described in the previous experiment for unconventional trafficking of hCLRN1^N48K-YFP by hGRASP55 cargos. Student's t-test was used to confirm the observed changes in the YFP intensity in the hair bundles of ART treatment compared to untreated and TG treated hCLRN1^N48K-YFP; clrn1^+/+ larvae, is significant (FIG. 4J).
compound,measurement,setting,value
"C/C=C(/C)C(=O)O[C@H]1C(C)=C2[C@H]([C@@H]1OC(=O)CCCCCCC)[C@@](C)(OC(C)=O)C[C@H](OC(=O)CCC)[C@@]1(O)[C@H]2OC(=O)[C@@]1(C)O [TG, Thapsigargin]",Effect on pattern of localization of wild-type hCLRN1-YFP to the hair cell's bundle or plasma membrane,hCLRN1-YFP,did not affect the pattern of localization
same,YFP intensity in the ROI in hair bundles (Mean±SEM),hCLRN1-YFP,68.57±1.36
same,Larvae survival,"[1]; TG 0.1 μM, exposure 1 h",S
same,Larvae survival,"[1]; TG 0.1 μM, exposure 2 h",S
same,Larvae survival,"[1]; TG 0.1 μM, exposure 3 h",S
same,Larvae survival,"[1]; TG 0.1 μM, exposure 4 h",S
same,Larvae survival,"[1]; TG 0.1 μM, exposure 8 h",S
same,Larvae survival,"[1]; TG 0.1 μM, exposure 16 h",S
same,Larvae survival,"[1]; TG 0.5 μM, exposure 1 h",S
same,Larvae survival,"[1]; TG 0.5 μM, exposure 2 h",S
same,Larvae survival,"[1]; TG 0.5 μM, exposure 3 h",S
same,Larvae survival,"[1]; TG 0.5 μM, exposure 4 h",S
same,Larvae survival,"[1]; TG 0.5 μM, exposure 8 h",S
same,Larvae survival,"[1]; TG 0.5 μM, exposure 16 h",L
same,Larvae survival,"[1]; TG 1.0 μM, exposure 1 h",S
same,Larvae survival,"[1]; TG 1.0 μM, exposure 2 h",S
same,Larvae survival,"[1]; TG 1.0 μM, exposure 3 h",S
same,Larvae survival,"[1]; TG 1.0 μM, exposure 4 h",S
same,Larvae survival,"[1]; TG 1.0 μM, exposure 8 h",L
same,Larvae survival,"[1]; TG 1.0 μM, exposure 16 h",L
same,Larvae survival,"[1]; TG 2.5 μM, exposure 1 h",L
same,Larvae survival,"[1]; TG 2.5 μM, exposure 2 h",L
same,Larvae survival,"[1]; TG 2.5 μM, exposure 3 h",L
same,Larvae survival,"[1]; TG 2.5 μM, exposure 4 h",L
same,Larvae survival,"[1]; TG 2.5 μM, exposure 8 h",L
same,Larvae survival,"[1]; TG 2.5 μM, exposure 16 h",L
same,Larvae survival,"[1]; TG 5.0 μM, exposure 1 h",L
same,Larvae survival,"[1]; TG 5.0 μM, exposure 2 h",L
same,Larvae survival,"[1]; TG 5.0 μM, exposure 3 h",L
same,Larvae survival,"[1]; TG 5.0 μM, exposure 4 h",L
same,Larvae survival,"[1]; TG 5.0 μM, exposure 8 h",L
same,Larvae survival,"[1]; TG 5.0 μM, exposure 16 h",L
"C[C@@H]1CC[C@H]2[C@@H](C)C(=O)O[C@@H]3O[C@@]4(C)CC[C@@H]1[C@]32OO4 [ART, Artemisinin]",Effect on pattern of localization of wild-type hCLRN1-YFP to the hair cell's bundle or plasma membrane,hCLRN1-YFP,did not affect the pattern of localization
same,YFP intensity in the ROI in hair bundles (Mean±SEM),hCLRN1-YFP,71.32±2.05
same,Larvae survival,"[1]; ART 0.4 μM, exposure 8 h",L
same,Larvae survival,"[1]; ART 0.4 μM, exposure 10 h",L
same,Larvae survival,"[1]; ART 0.5 μM, exposure 1 h",L
same,Larvae survival,"[1]; ART 0.5 μM, exposure 2 h",L
same,Larvae survival,"[1]; ART 0.5 μM, exposure 4 h",L
same,Larvae survival,"[1]; ART 0.5 μM, exposure 6 h",L
same,Larvae survival,"[1]; ART 0.5 μM, exposure 8 h",L
same,Larvae survival,"[1]; ART 0.5 μM, exposure 10 h",L
same,Larvae survival,"[1]; ART 1.0 μM, exposure 1 h",L
same,Larvae survival,"[1]; ART 1.0 μM, exposure 2 h",L
same,Larvae survival,"[1]; ART 1.0 μM, exposure 4 h",L
same,Larvae survival,"[1]; ART 1.0 μM, exposure 6 h",L
same,Larvae survival,"[1]; ART 1.0 μM, exposure 8 h",L
same,Larvae survival,"[1]; ART 1.0 μM, exposure 10 h",L
